Source: US20100227853A1, “INHIBITORS OF CYCLIC AMP PHOSPHODIESTERASES” (Trustees of Boston College, priority 2008, published 2010)

Key:
[1] = biological target: PDE7A (Homo sapiens, UniProt Q13946); test: 5FOA growth assay in fission yeast strain expressing PDE7A; format: cell-based; set-up: targets used in the assays are full-length proteins (as opposed to simply the catalytic domain); expressed in transfected cells; host or cells: Schizosaccharomyces pombe, PDE gene integrated in place of cgs2; conditions: high throughput 5FOA growth screen
Chain of PDE7A (Q13946 whole entry, the tested form may be a part): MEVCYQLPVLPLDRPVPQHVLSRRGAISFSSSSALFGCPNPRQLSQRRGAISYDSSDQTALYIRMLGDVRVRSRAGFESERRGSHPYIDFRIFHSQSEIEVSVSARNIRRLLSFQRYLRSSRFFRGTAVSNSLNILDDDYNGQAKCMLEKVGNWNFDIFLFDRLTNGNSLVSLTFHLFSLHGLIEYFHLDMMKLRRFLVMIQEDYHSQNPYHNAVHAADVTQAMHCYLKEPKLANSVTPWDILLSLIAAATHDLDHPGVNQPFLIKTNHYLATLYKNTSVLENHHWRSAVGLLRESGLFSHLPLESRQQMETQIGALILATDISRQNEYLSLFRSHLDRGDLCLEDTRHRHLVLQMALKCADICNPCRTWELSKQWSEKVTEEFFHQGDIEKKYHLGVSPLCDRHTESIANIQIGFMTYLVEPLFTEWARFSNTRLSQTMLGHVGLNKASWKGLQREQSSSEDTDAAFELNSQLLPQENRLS
Procedure: PDE inhibition allows growth in 5FOA medium as measured by optical density after 48 hours incubation at 30° C. Compound BC12 and six structural analogs were tested for growth stimulation.
(§1) Cells were pregrown in EMM medium [MP Biomedicals (Solon, Ohio), 3% glucose, filter-sterilized to avoid carmelization, which would introduce variability into the optical density of the medium] containing from 0 mM to 2.5 mM cAMP (or either 0.5 mM or 1.0 mM cGMP). This was to repress expression of the fbp1-ura4 reporter prior to exposure of cells to 5FOA medium. Cells were grown at 30° C. to exponential phase (approximately 10^7 cells/ml). Cells were collected by centrifugation and resuspended in 5FOA medium, and 25 μl were transferred to 384-well microtiter dishes (untreated, with flat clear bottoms) that had been pre-filled with 25 μl 5FOA medium and pre-pinned with 100 nl of compounds (stock solutions were generally 10 mM). Starting cell concentrations ranged from 0.5×10^5 to 4×10^5 cells/ml depending on the screening strain. […] Other positive control dishes contained 5 mM cAMP in the 5FOA medium for PDEs that lack appropriate control compounds. Cultures were grown for 48 hours at 30° C., sealed in an airtight container with moist paper towels to prevent evaporation. Optical densities (OD600) of cultures were measured using a microplate reader. Bioinformatic analysis of the results to determine composite Z scores was performed as previously described (1, 3).

[2] = biological target: T1, PDE4B3 (Mus musculus, UniProt Q8VBU5); test: 5FOA growth assay in fission yeast strain expressing PDE4B3; format: cell-based, Murine; conditions: high throughput 5FOA growth screen
T1 construct: targets used in the assays are full-length proteins (as opposed to simply the catalytic domain); expressed in transfected cells; host or cells: Schizosaccharomyces pombe, PDE gene integrated in place of cgs2
T1 sequence (Q8VBU5 1-721): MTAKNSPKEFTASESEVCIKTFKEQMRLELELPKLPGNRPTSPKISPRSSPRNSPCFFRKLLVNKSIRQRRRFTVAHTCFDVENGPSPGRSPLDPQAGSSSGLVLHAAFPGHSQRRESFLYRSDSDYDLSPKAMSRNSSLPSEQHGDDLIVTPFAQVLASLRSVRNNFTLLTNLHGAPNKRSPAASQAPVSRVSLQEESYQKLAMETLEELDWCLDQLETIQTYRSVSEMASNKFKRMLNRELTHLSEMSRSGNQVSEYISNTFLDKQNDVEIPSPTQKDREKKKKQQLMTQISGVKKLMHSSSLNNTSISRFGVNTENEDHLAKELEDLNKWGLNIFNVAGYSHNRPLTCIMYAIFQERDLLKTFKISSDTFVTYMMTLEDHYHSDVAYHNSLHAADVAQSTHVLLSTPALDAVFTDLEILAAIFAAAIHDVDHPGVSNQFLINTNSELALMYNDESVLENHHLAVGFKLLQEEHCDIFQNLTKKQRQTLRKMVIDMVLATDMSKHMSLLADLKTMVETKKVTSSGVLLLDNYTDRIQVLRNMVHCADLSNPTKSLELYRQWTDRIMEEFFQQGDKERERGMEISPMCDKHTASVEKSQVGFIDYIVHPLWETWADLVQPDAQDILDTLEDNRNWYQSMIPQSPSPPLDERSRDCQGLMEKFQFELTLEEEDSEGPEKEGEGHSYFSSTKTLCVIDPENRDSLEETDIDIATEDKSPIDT
Procedure: (§2) High throughput drug screens were carried out at the Broad Institute's Chemical Biology Program screening facility (Broad Institute, Cambridge, Mass.). Depending upon the strain, cultures were pregrown to exponential phase in EMM complete medium containing from 0.5 to 2.5 mM cAMP to repress fbp1-ura4 transcription. […] Starting cell concentrations ranged from 0.5×10^5 to 4×10^5 cells/ml depending on the screening strain. […] Other positive control dishes contained 5 mM cAMP in the 5FOA medium. Cultures were grown for 48 hours at 30° C., sealed in an airtight container with moist paper towels to prevent evaporation. Optical densities (OD600) of cultures were measured using a microplate reader. Bioinformatic analysis of the results to determine composite Z scores was performed as previously described^30, 31.
(§3) To determine whether the 5FOA growth phenotype could be exploited for high throughput drug screening, strains expressing PDE2A, PDE4A, PDE4B, or PDE8A were pre-grown in EMM medium containing cAMP and then transferred to 5FOA medium in 384 well microtiter plates in the presence or absence of cAMP. OD600 measurements were taken after 48 hours incubation at 30° C.
as §1, with “Cells were collected by centrifugation and resuspended in 5FOA medium, and 25 μl were transferred to 384-well microtiter dishes (untreated, with flat clear bottoms) that had been pre-filled with 25 μl 5FOA medium and pre-pinned with 100 nl of compounds (stock solutions were generally 10 mM).” left out

[3] = biological target: T2, PDE4A1 (Mus musculus, UniProt O89084); test: 5FOA growth assay (high throughput screen, ED50) in fission yeast strain expressing PDE4A1; format: cell-based; conditions: high throughput 5FOA growth screen; greater than 8.53 = statistically-significant inhibitor
T2 construct: targets used in the assays are full-length proteins (as opposed to simply the catalytic domain); expressed in transfected cells; host or cells: Schizosaccharomyces pombe, PDE gene integrated in place of cgs2
T2 sequence (O89084 1-610 isoform O89084-2): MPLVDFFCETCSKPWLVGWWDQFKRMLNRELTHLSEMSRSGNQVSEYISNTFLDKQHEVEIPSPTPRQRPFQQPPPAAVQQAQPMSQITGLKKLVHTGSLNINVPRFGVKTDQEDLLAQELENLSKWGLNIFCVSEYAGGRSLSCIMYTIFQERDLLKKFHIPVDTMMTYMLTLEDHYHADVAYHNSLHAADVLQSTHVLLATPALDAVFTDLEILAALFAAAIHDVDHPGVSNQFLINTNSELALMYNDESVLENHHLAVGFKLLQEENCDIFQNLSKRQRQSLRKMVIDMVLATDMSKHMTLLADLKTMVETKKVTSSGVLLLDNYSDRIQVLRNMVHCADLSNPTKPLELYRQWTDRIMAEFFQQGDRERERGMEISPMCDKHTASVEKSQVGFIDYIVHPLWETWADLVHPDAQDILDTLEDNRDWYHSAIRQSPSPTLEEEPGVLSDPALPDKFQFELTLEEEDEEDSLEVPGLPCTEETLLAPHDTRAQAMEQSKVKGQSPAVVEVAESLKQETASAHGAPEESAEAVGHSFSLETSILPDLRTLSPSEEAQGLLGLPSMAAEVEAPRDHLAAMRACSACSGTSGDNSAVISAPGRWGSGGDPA
Procedure: as §2, §3
as §1, with “Cells were collected by centrifugation and resuspended in 5FOA medium, and 25 μl were transferred to 384-well microtiter dishes (untreated, with flat clear bottoms) that had been pre-filled with 25 μl 5FOA medium and pre-pinned with 100 nl of compounds (stock solutions were generally 10 mM).” left out

Row | SMILES | Composite Z score, PDE7A [1] | Composite Z score, PDE4B3 [2] | Composite Z score, PDE4A1 [3]
1 | Cc1sc2ncnc(N(C)C)c2c1C [Compound 2085O15] | −0.627 | −1.519 | 1.0991
2 | CC(C)CNc1ncnc2sc3c(c12)CCCC3 [Compound 2077P12] | 17.695 | 9.3964 | 1.6797
3 | c1ccc(CNc2ncnc3sc4c(c23)CCCC4)cc1 [Compound 2077J03] | 1.1908 | 1.9013 | 1.1575
4 | c1ccc(CN2CCN(c3ncnc4sc5c(c34)CCCCC5)CC2)cc1 [Compound 2074A07] | 0.7527 | 0.8366 | −0.348
5 | O=C(c1ccco1)N1CCN(c2ncnc3sc4c(c23)CCCC4)CC1 [Compound 2083J20] | 0.8496 | 5.6256 | 18.511
6 | Cc1sc2ncnc(NCc3cccnc3)c2c1C [Compound 2081F17] | 0.439 | 1.6993 | 0.1374
7 | Cc1sc2ncnc(NC3CCN(Cc4ccccc4)CC3)c2c1C [Compound 1426C09] |  | −0.516 | −0.147
8 | CCNc1nc(C)nc2sc3c(c12)CCCC3 [Compound 1410G03] |  | 2.8289 | 2.9506
9 | CCC(CO)Nc1nc(C)nc2sc3c(c12)CCCC3 (stereo not drawn) [Compound 1426O11] |  | 0.0693 | 0.4682
10 | c1cn(CCCNc2ncnc3sc4c(c23)CCCC4)cn1 [1435 E20] |  | 0.5336 | 1.6661
11 | O=C(Nc1ncnc2sc3c(c12)CCCCC3)c1ccco1 [Compound 2084G06] | −1.808 | 0.884 | 6.4203
12 | Cc1sc2ncnc(NCC(=O)O)c2c1C [Compound 2085F18] | −1.774 | 0.8136 | 0.3168
13 | COc1ccc(C(=O)Nc2ncnc3sc4c(c23)CCCC4)cc1OC [Compound 1414F18] |  | −0.382 | 9.1375
14 | CC1CCc2c(sc3ncnc(NCCN4CCOCC4)c23)C1 (stereo not drawn) [Compound 1425N16] |  | −1.074 | 0.4867
15 | CC(C)C(Nc1ncnc2sc3c(c12)CCC3)C(=O)O (stereo not drawn) [Compound 1381A19] |  | 0.2365 | 1.3339
16 | Cc1sc2ncnc(NCCc3ccc4c(c3)OCCO4)c2c1C [Compound 1426G17] |  | 25.393 | 10.127
17 | CCOC(=O)c1sc2ncnc(N3CCc4ccccc4C3)c2c1C [Compound 1379L18] |  | 1.8207 | −0.753
18 | Cc1sc2ncnc(N3CCN(c4cccc(C(F)(F)F)c4)CC3)c2c1C [Compound 2074G03] | −1.925 | −1.188 | 11.67
19 | COC(=O)Cc1nc(N2CCC(C)CC2)c2c3c(sc2n1)CCCC3 [Compound 1392J18] |  | 0.7173 | 10.795
20 | CCN1CCN(c2nc(C)nc3sc4c(c23)CCC4)CC1 [Compound 1414C06] |  | 0.632 | 1.6242
21 | CCN(CC)CCCNc1ncnc2sc3c(c12)CC(C)CC3 (stereo not drawn) [Compound 2083L15] | −1.18 | −0.877 | 1.9931
22 | COc1ccccc1C(=O)Nc1ncnc2sc3c(c12)CCCC3 [Compound 1415M01] |  | 1.1976 | 1.7784
23 | c1cncc(CNc2ncnc3sc4c(c23)CCCC4)c1 [Compound 1423I22] |  | 0.501 | 1.7161
24 | c1nc(NC2CCCC2)c2c3c(sc2n1)CCC3 [2084 E21] | 18.891 | 0.593 | 29.047
25 | O=C(Nc1ncnc2sc3c(c12)CCC3)c1cccs1 [Compound 2084I06] | 12.419 | 0.9421 | 7.8022
26 | Cc1sc2ncnc(N3CCN(CCO)CC3)c2c1C [Compound 2084A21] | 0.0079 | 0.6718 | 0.1942
27 | O=C(Nc1ncnc2sc3c(c12)CCC3)c1ccccc1 [Compound 1380I07] |  | −0.935 | 36.663
28 | C=CCNc1ncnc2sc3c(c12)CCCC3 [Compound 1435C20] |  | 31.009 | 8.4736
